# Values of other authors, collected in US8858963B1, “Tamper resistant composition comprising hydrocodone and acetaminophen for rapid onset and extended duration of analgesia” (Mallinckrodt LLC, priority 2011, dated 2014).
# Tested on: hepatic GSH
# Settings: Swiss mice
smiles,measurement,setting,value
CC(=O)Nc1ccc(O)cc1 [acetaminophen],onset of circulating hepatic GSH changes after administration,acetaminophen 100 mg/kg to 600 mg/kg,≤ 15 min
same,time of minimum GSH level after injection,all dose groups (100 mg/kg to 600 mg/kg),2 h
